Measured values from US10743540B2, “3-amino-1,2,4-triazine derivatives and their use for controlling undesired plant growth” (BAYER CROPSCIENCE AKTIENGESELLSCHAFT, priority 2016, dated 2020).

Experiments:
Format in all cases: in vivo
STEME: Stellaria media [1] = assay: Pre-emergence herbicidal effect; settings: application rate 320 g/ha, scored visually after 3 weeks, 100% = plants have died, 0% = like control plants
Description: (§1) 1. Pre-Emergence Herbicidal Effect and Crop Plant Compatibility Seeds of monocotyledonous and dicotyledonous weed plants and crop plants are laid out in sandy loam soil in wood-fiber pots and covered with soil. The compounds of the invention, formulated in the form of wettable powders (WP) or as emulsion concentrates (EC), are then applied to the surface of the covering soil as aqueous suspension or emulsion at a water application rate equating to 600 to 800 L/ha with addition of 0.2% wetting agent. After the treatment, the pots are placed in a greenhouse and kept under good growth conditions for the trial plants. The damage to the test plants is scored visually after a test period of 3 weeks by comparison with untreated controls (herbicidal activity in percent (%): 100% activity=the plants have died, 0% activity=like control plants). [table]

VERPE: Veronica persica [2] = assay: Pre-emergence herbicidal effect; settings: application rate 320 g/ha, scored visually after 3 weeks, 100% = plants have died, 0% = like control plants
Description: as §1

VERPE: Veronica persica [3] = assay: Post-emergence herbicidal effect; settings: application rate 320 g/ha, treated at one-leaf stage, assessed visually after about 3 weeks, 100% = plants have died
Experimental: (§2) [table] 2. Post-Emergence Herbicidal Effect and Crop Plant Compatibility Seeds of monocotyledonous and dicotyledonous weed and crop plants are laid out in sandy loam soil in wood-fiber pots, covered with soil and cultivated in a greenhouse under good growth conditions. 2 to 3 weeks after sowing, the test plants are treated at the one-leaf stage. The compounds of the invention, formulated in the form of wettable powders (WP) or as emulsion concentrates (EC), are then sprayed onto the green parts of the plants as aqueous suspension or emulsion at a water application rate equating to 600 to 800 L/ha with addition of 0.2% wetting agent. After the test plants have been left to stand in the greenhouse under optimal growth conditions for about 3 weeks, the action of the preparations is assessed visually in comparison to untreated controls (herbicidal action in percent (%): 100% activity=the plants have died, 0% activity=like control plants).

VIOTR: Viola tricolor = assay: Post-emergence herbicidal effect; settings: application rate 320 g/ha, treated at one-leaf stage, assessed visually after about 3 weeks, 100% = plants have died
Experimental: as §2

[4] = tested on: MATIN: Matricaria inodora; assay: Pre-emergence herbicidal effect; settings: application rate 320 g/ha, scored visually after 3 weeks, 100% = plants have died, 0% = like control plants
Description: as §1

[5] = tested on: POLCO: Polygonum convolvulus; assay: Pre-emergence herbicidal effect; settings: application rate 320 g/ha, scored visually after 3 weeks, 100% = plants have died, 0% = like control plants
Description: as §1

STEME: Stellaria media [6] = assay: Post-emergence herbicidal effect; settings: application rate 320 g/ha, treated at one-leaf stage, assessed visually after about 3 weeks, 100% = plants have died
Experimental: as §2

[7] = tested on: ECHCG: Echinochloa crus-galli; assay: Pre-emergence herbicidal effect; settings: application rate 320 g/ha, scored visually after 3 weeks, 100% = plants have died, 0% = like control plants
Description: as §1

SETVI: Setaria viridis = assay: Pre-emergence herbicidal effect; settings: application rate 320 g/ha, scored visually after 3 weeks, 100% = plants have died, 0% = like control plants
Description: as §1

[8] = tested on: ALOMY: Alopecurus myosuroides; assay: Pre-emergence herbicidal effect; settings: application rate 320 g/ha, scored visually after 3 weeks, 100% = plants have died, 0% = like control plants
Description: as §1

Row | Compound | Herbicidal activity with respect to [%] STEME (STEME: Stellaria media [1]) | Herbicidal activity with respect to [%] VERPE (VERPE: Veronica persica [2]) | Herbicidal activity with respect to [%] VERPE (VERPE: Veronica persica [3]) | Herbicidal activity with respect to [%] VIOTR (VIOTR: Viola tricolor) | Herbicidal activity with respect to [%] MATIN [4] | other results
1 | CCOC(=O)CCNC(=O)c1nnc(N[C@H]2c3cc(C)ccc3C[C@@H]2C)nc1N [Example 1.42] | 100% | 80% | – | – | – | –
2 | Cc1ccc2c(c1)[C@H](Nc1nnc(C(=O)NS(=O)(=O)c3ccc([N+](=O)[O-])cc3)c(N)n1)[C@@H](C)C2 [Example 1.56] | 100% | 100% | – | – | – | –
3 | Nc1nc(NC2c3ccccc3CC2O)nnc1C(F)(F)F (racemic) [Example 1.84] | 100% | 100% | 80% | 90% | – | –
4 | CC(C)(C)c1nnc(N[C@@H]2CCc3ccccc32)nc1N [Example 1.7] | – | 100% | 90% | – | 90% | –
5 | N#Cc1nnc(NC2CCCc3cc(F)ccc32)nc1N (racemic) [Example 1.63] | 100% | – | – | – | – | –
6 | CC(=O)c1nnc(N[C@@H]2CCc3ccccc32)nc1N [Example 1.29, 1-[5-Amino-3-[(1R)-2,3-dihydro-1H-inden-1-ylamino]-1,2,4-triazin-6-yl]ethanone] | 90% | 90% | – | 80% | 100% | Herbicidal activity with respect to [%] POLCO [5]: 80%; Herbicidal activity with respect to [%] STEME (STEME: Stellaria media [6]): 90%
7 | Cc1ccc2c(c1)[C@H](Nc1nnc(C(C)O)c(N)n1)[C@@H](C)C2 (stereo partly drawn) [Example 1.103] | 100% | 100% | 90% | 90% | 100% | Herbicidal activity with respect to [%] POLCO [5]: 100%; Herbicidal activity with respect to [%] ECHCG [7]: 100%; Herbicidal activity with respect to [%] STEME (STEME: Stellaria media [6]): 80%
8 | C=Cc1nnc(N[C@H]2c3cc(C)ccc3C[C@@H]2C)nc1N [Example 1.80] | 100% | 100% | – | 100% | – | –
9 | Nc1nc(NC2COc3ccccc32)nnc1C(F)(F)F (racemic) [Example 1.48] | 100% | 100% | 80% | – | 100% | Herbicidal activity with respect to [%] ECHCG [7]: 100%; Herbicidal activity with respect to [%] STEME (STEME: Stellaria media [6]): 100%
10 | Cc1ccc2c(c1)[C@H](Nc1nnc(C(=O)NS(=O)(=O)c3ccccc3)c(N)n1)[C@@H](C)C2 [Example 1.55] | 100% | 90% | 80% | 80% | – | –
11 | CC(C)(C)c1nnc(N[C@@H]2CCCc3ccccc32)nc1N [Example 1.5] | – | 100% | 80% | – | 90% | –
12 | Cc1ccc2c(c1)[C@H](Nc1nnc(C(=O)NS(=O)(=O)C(F)(F)F)c(N)n1)[C@@H](C)C2 [Example 1.57] | 100% | 100% | 80% | – | – | –
13 | Cc1ccc2c(c1)[C@H](Nc1nnc(-c3ccc(Cl)cc3)c(N)n1)[C@@H](C)C2 [Example 1.79, 6-(4-Chlorophenyl)-N^3-[(1R,2S)-2,6-dimethyl-2,3-dihydro-1H-inden-1-yl]-1,2,4-triazine-3,5-diamine] | 100% | 100% | – | – | – | –
14 | C=C(c1nnc(N[C@H]2c3cc(C)ccc3C[C@@H]2C)nc1N)C(F)(F)F [Example 1.81] | 100% | 100% | – | 80% | 100% | Herbicidal activity with respect to [%] POLCO [5]: 100%; Herbicidal activity with respect to [%] ECHCG [7]: 100%
15 | Cc1ccc2c(c1)[C@H](Nc1nnc(C(C)(C)O)c(N)n1)[C@@H](C)C2 [Example 1.105] | 100% | 100% | 80% | 90% | 100% | Herbicidal activity with respect to [%] POLCO [5]: 100%; Herbicidal activity with respect to [%] ECHCG [7]: 100%
16 | CNC(=O)c1nnc(NC2CCc3ccccc32)nc1N (racemic) [Example 1.35] | – | 100% | – | – | – | –

Row | Compound | Herbicidal activity with respect to [%] STEME (STEME: Stellaria media [1]) | Herbicidal activity with respect to [%] VERPE (VERPE: Veronica persica [2]) | Herbicidal activity with respect to [%] VERPE (VERPE: Veronica persica [3]) | Herbicidal activity with respect to [%] VIOTR (VIOTR: Viola tricolor) | Herbicidal activity with respect to [%] MATIN [4] | other results
17 | Clc1nnc(NC2CCCc3ccccc32)nc1NC1CC1 (racemic) [Example 1.10] | 80% | – | – | – | – | –
18 | CC(C)(C)c1nnc(NC2CCOc3ccccc32)nc1N (racemic) [Example 1.8] | 80% | 100% | – | – | – | –
19 | Clc1nnc(NC2CCOc3ccccc32)nc1NC1CC1 (racemic) [Example 1.14] | 90% | – | – | – | – | –
20 | CCCS(=O)(=O)NC(=O)c1nnc(N[C@H]2c3cc(C)ccc3C[C@@H]2C)nc1N [Example 1.53] | 100% | 100% | 80% | – | – | –
21 | CCOC(=O)c1nnc(N[C@@H]2CCc3ccc(C)cc32)nc1N [Example 1.74] | – | – | – | – | 100% | Herbicidal activity with respect to [%] SETVI (SETVI: Setaria viridis): 100%; Herbicidal activity with respect to [%] POLCO [5]: 100%; Herbicidal activity with respect to [%] ALOMY [8]: 80%; Herbicidal activity with respect to [%] ECHCG [7]: 100%; Herbicidal activity with respect to [%] STEME (STEME: Stellaria media [6]): 100%
22 | CS(=O)(=O)c1nnc(NC2c3ccccc3CC2O)nc1N (stereo not drawn) [Example 1.87] | 100% | 90% | – | – | – | –
23 | Cc1ccc2c(c1)[C@H](Nc1nnc(Cl)c(NC3CC3)n1)[C@@H](C)C2 [Example 1.2] | 100% | 100% | – | – | 90% | –
24 | Cc1ccc2c(c1)[C@H](Nc1nnc(C(=O)O)c(N)n1)CC2 [Example 1.75] | – | – | – | – | – | Herbicidal activity with respect to [%] STEME (STEME: Stellaria media [6]): 100%
25 | CCOC(=O)CNC(=O)c1nnc(N[C@H]2c3cc(C)ccc3C[C@@H]2C)nc1N [Example 1.43] | 100% | 100% | 80% | 80% | 100% | –
26 | Nc1nc(NC2c3ccccc3CC2O)nnc1C(F)(F)F (stereo not drawn) [Example 1.82] | – | – | – | – | 100% | Herbicidal activity with respect to [%] SETVI (SETVI: Setaria viridis): 100%; Herbicidal activity with respect to [%] POLCO [5]: 100%
27 | N#Cc1nnc(N[C@@H]2CCc3ccccc32)nc1N [Example 1.38] | 100% | 100% | – | 90% | – | Herbicidal activity with respect to [%] ECHCG [7]: 80%
28 | CNC(=O)c1nnc(N[C@@H]2CCCc3ccccc32)nc1N [Example 1.34, 5-Amino-N-methyl-3-[(1R)-1,2,3,4-tetrahydronaphthalen-1-ylamino]-1,2,4-triazine-6-carboxamide] | – | – | 90% | – | – | –
29 | Cc1ccc2c(c1)[C@@H](Nc1nnc(C#N)c(N)n1)CC2 [Example 1.61] | 80% | – | – | – | – | –
30 | CCOC(=O)c1nnc(N[C@@H]2CCc3ccccc32)nc1N [Example 1.33] | 100% | 100% | 80% | – | 100% | Herbicidal activity with respect to [%] POLCO [5]: 100%; Herbicidal activity with respect to [%] ECHCG [7]: 80%
31 | Cc1ccc2c(c1)[C@H](Nc1nnc(C(C)(C)C)c(N)n1)[C@@H](C)C2 [Example 1.6] | – | 100% | 80% | 80% | 90% | –
32 | CC(=O)c1nnc(N[C@@H]2CCCc3ccccc32)nc1N [Example 1.30] | 100% | 100% | 80% | – | 100% | Herbicidal activity with respect to [%] POLCO [5]: 100%; Herbicidal activity with respect to [%] ECHCG [7]: 80%; Herbicidal activity with respect to [%] STEME (STEME: Stellaria media [6]): 80%
